Results on 27 compounds are retold here after patent US9273057B2 (Bristol-Myers Squibb Company, priority 2012, dated 2016).

The target in the experiment is CK2A1 (CK2α/β) (Homo sapiens, UniProt P68400). Kind of experiment: CK2 kinase assay, CK2A1 (CK2α/β). It counts as biochemical. The note with it: Table A; read-out: CK2A1 (CK2α/β) (IC50).
Sequence of CK2A1 (CK2α/β) (P68400 whole entry, species assumed): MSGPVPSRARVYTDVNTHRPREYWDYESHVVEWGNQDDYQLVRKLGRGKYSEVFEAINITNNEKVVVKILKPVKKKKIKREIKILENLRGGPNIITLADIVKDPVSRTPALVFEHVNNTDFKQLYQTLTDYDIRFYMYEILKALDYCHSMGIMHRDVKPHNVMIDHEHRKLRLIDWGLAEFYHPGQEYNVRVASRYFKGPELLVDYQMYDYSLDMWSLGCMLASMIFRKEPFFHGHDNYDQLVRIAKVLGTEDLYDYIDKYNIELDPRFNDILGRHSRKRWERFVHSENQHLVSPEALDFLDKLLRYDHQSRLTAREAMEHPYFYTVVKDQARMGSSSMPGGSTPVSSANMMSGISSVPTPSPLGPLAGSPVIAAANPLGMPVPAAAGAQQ
Sequence of CK2A1 (CK2α/β) (P67870 whole entry partner, species assumed): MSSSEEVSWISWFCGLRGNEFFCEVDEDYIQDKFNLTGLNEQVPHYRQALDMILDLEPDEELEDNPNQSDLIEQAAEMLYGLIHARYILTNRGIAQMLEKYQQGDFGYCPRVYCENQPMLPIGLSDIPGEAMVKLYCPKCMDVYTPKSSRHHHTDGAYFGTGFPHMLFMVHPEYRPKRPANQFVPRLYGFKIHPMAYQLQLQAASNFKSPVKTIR
`COCCN(C)Cc1cc(C#N)cc(Nc2nc(NC3CC3)c3ncc(C#N)n3n2)c1Cl` [Example 475, 2-[(2-chloro-5-cyano-3-{[(2-methoxyethyl)(methyl)amino]methyl}phenyl)amino]-4-(cyclopropylamino)imidazo[2,1-f][1,2,4]triazine-7-carbonitrile]: the IC50 amounted to 1.78 nM.
In the case of `N#Cc1cc(Nc2nc(NC3CC3)c3ncc(C#N)n3n2)c(Cl)c(N2CCN(C3CN(C(=O)C4CNCCO4)C3)CC2)c1` (stereo not drawn) [Example 489, 2-[(2-chloro-5-cyano-3-{4-[1-(morpholine-2-carbonyl)azetidin-3-yl]piperazin-1-yl}phenyl)amino]-4-(cyclopropylamino)imidazo[2,1-f][1,2,4]triazine-7-carbonitrile], the IC50 was found to be 1.4 nM.
The result for `N#Cc1cc(Nc2nc(NC3CC3)c3ncc(C#N)n3n2)c(Cl)c(N2CCN(CC3COCCN3)CC2)c1` (stereo not drawn) [Example 598, 2-({2-chloro-5-cyano-3-[4-(morpholin-3-ylmethyl)piperazin-1-yl]phenyl}amino)-4-(cyclopropylamino)imidazo [2,1-f][1,2,4]triazine-7-carbonitrile] reads 0.51 nM; that for `CC(CC(C)c1cc(Cl)c(Nc2nc(NC3CC3)c3ncc(C#N)n3n2)cc1C#N)NCC(F)(F)F` (stereo not drawn) [Example 732, 2-((2-chloro-5-cyano-4-(4-((2,2,2-trifluoroethyl)amino)pentan-2-yl)phenyl)amino)-4-(cyclopropylamino)imidazo[2,1-f][1,2,4]triazine-7-carbonitrile], 25.4 nM.
For `CC1CN(c2cc(C#N)cc(Nc3nc(NC4CC4)c4ncc(C#N)n4n3)c2Cl)CCN1C` (racemic) [Example 35, (+/−) 2-((2-chloro-5-cyano-3-(3,4-dimethyl-1-piperazinyl)phenyl)amino)-4-(cyclopropylamino)imidazo [2,1-f][1,2,4]triazine-7-carbonitrile], the IC50 is 0.38 nM.
`N#Cc1cc(CNCC2CC2)c(Cl)c(Nc2nc(NC3CC3)c3ncc(C#N)n3n2)c1` [Example 470]: the IC50 was found to be 1.5 nM.
On to `CC(=O)N1CC(N2CCN(c3cc(C#N)cc(Nc4nc(NC5CC5)c5ncc(C#N)n5n4)c3Cl)C(=O)C2)C1` [Example 633, 2-((3-(4-(1-acetylazetidin-3-yl)-2-oxopiperazin-1-yl)-2-chloro-5-cyanophenyl)amino)-4-(cyclopropylamino)imidazo[2,1-f][1,2,4]triazine-7-carbonitrile], for which the IC50 is 1.2 nM.
With `N#Cc1cc(Nc2nc(NC3CC3)c3ncc(C#N)n3n2)c(F)c(N2CCN(C3CNC3)CC2)c1` [Example 550, 2-((3-(4-(azetidin-3-yl)piperazin-1-yl)-5-cyano-2-fluorophenyl)amino)-4-(cyclopropylamino)imidazo[2,1-f][1,2,4]triazine-7-carbonitrile], the IC50 is 0.83 nM.
As to `N#Cc1cc(Nc2nc(NC3CC3)c3ncc(C#N)n3n2)c(Cl)c(N2CC[C@@H](NC(=O)OCCN3CCOCC3)[C@H](O)C2)c1` [Example 178, 2-morpholinoethyl ((3R,4R)-1-(2-chloro-5-cyano-3-((7-cyano-4-(cyclopropylamino)imidazo[2,1-f][1,2,4]triazin-2-yl)amino)phenyl)-3-hydroxypiperidin-4-yl)carbamate], the IC50 stood at 0.77 nM.
With `[2H]C1(N2CCC(c3cc(C#N)cc(Nc4nc(NC5CC5)c5ncc(C#N)n5n4)c3Cl)CC2)COC1` [Example 223, 2-((2-chloro-5-cyano-3-(1-(3-~2~H)-3-oxetanyl-4-piperidinyl)phenyl)amino)-4-(cyclopropylamino)imidazo[2,1-f][1,2,4]triazine-7-carbonitrile], the IC50 was 0.95 nM.
On to `COC(=O)N(C)[C@@H]1CCN(c2cc(C#N)cc(Nc3nc(NC4CC4)c4ncc(C#N)n4n3)c2Cl)C[C@H]1O` (racemic) [Example 187, (+/−)-methyl ((3R,4R)-1-(2-chloro-5-cyano-3-((7-cyano-4-(cyclopropylamino)imidazo[2,1-f][1,2,4]triazin-2-yl)amino)phenyl)-3-hydroxypiperidin-4-yl)(methyl)carbamate], for which the IC50 was found to be 0.94 nM.
The value for `N#Cc1cc(Nc2nc(NC3CC3)c3ncc(C#N)n3n2)c(OCCN2CCOCC2)cc1OCCN1CCOCC1` [Example 422, 2-((5-cyano-2,4-bis(2-morpholinoethoxy)phenyl)amino)-4-(cyclopropylamino)imidazo[2,1-f][1,2,4]triazine-7-carbonitrile] was 2.73 nM.
Consider `C[C@@H]1CN(c2cc(C#N)cc(Nc3nc(NC4CC4)c4ncc(C#N)n4n3)c2Cl)C[C@H]1O` (racemic) [Example 20, (+/−) 2-((2-chloro-5-cyano-3-((3S,4R)-3-hydroxy-4-methyl-1-pyrrolidinyl)phenyl)amino)-4-(cyclopropylamino)imidazo [2,1-f][1,2,4]triazine-7-carbonitrile], for which the IC50 turned out to be 4.9 nM.
For `CC1(O)CN(C2CN(c3cc(C#N)cc(Nc4nc(NC5CC5)c5ncc(C#N)n5n4)c3Cl)C2)C1` [Example 168, 2-((2-chloro-5-cyano-3-(3-hydroxy-3-methyl-1,3′-biazetidin-1′-yl)phenyl)amino)-4-(cyclopropylamino)imidazo [2,1-f][1,2,4]triazine-7-carbonitrile], the IC50 was determined as 0.68 nM.
With `CC(C)(C)C(=O)N1CCC(c2cc(C#N)cc(Nc3nc(NC4CC4)c4ncc(C#N)n4n3)c2Cl)CC1` [Example 234, 2-((2-chloro-5-cyano-3-(1-(2,2-dimethylpropanoyl)-4-piperidinyl)phenyl)amino)-4-(cyclopropylamino)imidazo[2,1-f][1,2,4]triazine-7-carbonitrile], the IC50 is 1.6 nM.
As for `CN1CCCN(c2cc(C#N)cc(Nc3nc(NC4CC4)c4ncc(C#N)n4n3)c2Cl)C(=O)C1` [Example 635, 2-((2-chloro-5-cyano-3-(4-methyl-2-oxo-1,4-diazepan-1-yl)phenyl)amino)-4-(cyclopropylamino)imidazo[2,1-f][1,2,4]triazine-7-carbonitrile], the IC50 came out at 1.83 nM.
Turning to `COCC(=O)N1CCN(c2cc(C#N)cc(Nc3nc(NC4CC4)c4ncc(C#N)n4n3)c2Cl)CC1` [Example 77], the IC50 stood at 0.69 nM.
`C[C@H](O)CN1CCC(c2cc(C#N)cc(Nc3nc(NC4CC4)c4ncc(C#N)n4n3)c2Cl)CC1` [Example 216, (S)-2-(2-chloro-5-cyano-3-(1-(2-hydroxypropyl)piperidin-4-yl)phenylamino)-4-(cyclopropylamino)imidazo[1,2-f][1,2,4]triazine-7-carbonitrile]: the IC50 was found to be 1.02 nM.
The result for `COC(=O)N1CC2CN(c3cc(C#N)cc(Nc4nc(NC5CC5)c5ncc(C#N)n5n4)c3Cl)CC2C1` (stereo not drawn) [Example 462, methyl 5-(2-chloro-5-cyano-3-((7-cyano-4-(cyclopropylamino)imidazo[2,1-f][1,2,4]triazin-2-yl)amino)phenyl)hexahydro-pyrrolo[3,4-c]pyrrole-2(1H)-carboxylate] reads 3 nM; that for `N#Cc1cc(Nc2nc(NC3CC3)c3ncc(C#N)n3n2)c(Cl)c(N2CCN3CC[C@H](O)[C@H]3C2)c1` (racemic) [Example 438, (+/−)-2-((2-chloro-5-cyano-3-((8R,8aS)-8-hydroxyhexahydropyrrolo[1,2-a]pyrazin-2(1H)-yl)phenyl)amino)-4-(cyclopropylamino)imidazo[2,1-f][1,2,4]triazine-7-carbonitrile], 0.73 nM.
The value for `CCNc1nc(Nc2ccc3c(c2)c(C#N)cn3C2CCN(C3CN(C4COC4)C3)CC2)nn2c(C#N)cnc12` [Example 835, 2-((3-cyano-1-(1-(1-(oxetan-3-yl)azetidin-3-yl)piperidin-4-yl)-1H-indol-5-yl)amino)-4-(ethylamino)imidazo[2,1-f][1,2,4]triazine-7-carbonitrile] was 0.98 nM.
For the compound `COC(=O)Nc1cc(Nc2nc(NC3CC3)c3ncc(C#N)n3n2)c(Cl)c(N2CC(N3CCC(OC)CC3)C2)c1` [Example 204, methyl (4-chloro-3-((7-cyano-4-(cyclopropylamino)imidazo[2,1-f][1,2,4]triazin-2-yl)amino)-5-(3-(4-methoxy-1-piperidinyl)-1-azetidinyl)phenyl)carbamate], the IC50 was 0.87 nM.
In the case of `N#Cc1cc(Nc2nc(NC3CC3)c3ncc(C#N)n3n2)c(Cl)c(N2CCN(CC(N)=O)CC2)c1` [Example 600, 2-[4-(2-chloro-5-cyano-3-{[7-cyano-4-(cyclopropylamino)imidazo[2,1-f][1,2,4]triazin-2-yl]amino}phenyl)piperazin-1-yl]acetamide], the IC50 was determined as 0.53 nM.
With `N#Cc1cc(Nc2nc(NC3CC3)c3ncc(C#N)n3n2)c(Cl)c(C2CCN(C3CN(C(=O)C(F)(F)F)C3)CC2)c1` [Example 638, 2-((2-chloro-5-cyano-3-(1-(1-(2,2,2-trifluoroacetyl)azetidin-3-yl)piperidin-4-yl)phenyl)amino)-4-(cyclopropylamino)imidazo[2,1-f][1,2,4]triazine-7-carbonitrile], the IC50 amounted to 0.8 nM.
The value for `N#Cc1cc(Nc2nc(NC3CC3)c3ncc(C#N)n3n2)c(Cl)c(N2CCN(C(=O)CCO)CC2)c1` [Example 90, 2-(2-chloro-5-cyano-3-(4-(3-hydroxypropanoyl)piperazin-1-yl)phenylamino)-4-(cyclopropylamino) imidazo[1,2-f][1,2,4] triazine-7-carbonitrile] was 0.53 nM; that for `N#Cc1cnc2c(NC3CC3)nc(Nc3cc(C(F)F)cc(N4CCC(C(CO)CO)CC4)c3Cl)nn12` [Example 277, 2-((2-chloro-5-(difluoromethyl)-3-(4-(2-hydroxy-1-(hydroxymethyl)ethyl)-1-piperidinyl)phenyl)amino)-4-(cyclopropylamino)imidazo[2,1-f][1,2,4]triazine-7-carbonitrile] was 2.56 nM.
Take `N#Cc1cnc2c(NC3CC3)nc(Nc3cc(C(F)F)cc(N4CCN(CC(F)F)CC4)c3Cl)nn12` [Example 248, 2-((2-chloro-3-(4-(2,2-difluoroethyl)-1-piperazinyl)-5-(difluoromethyl)phenyl)amino)-4-(cyclopropylamino)imidazo[2,1-f][1,2,4]triazine-7-carbonitrile]: the IC50 came out at 3.27 nM.
